pEC50: −log10 of the molar value.
Key:
[1] = system: SIV integrase G118R/A122T (SIV IN RTV pseudovirus); type: cell-based; conditions: G118R/A122T SIV integrase mutant
[2] = system: SIV integrase I250V (SIV IN RTV pseudovirus); test: organism not typed; type: cell-based; conditions: for pEC50: HEK293
[3] = system: SIV integrase WT (SIV IN RTV pseudovirus); test: organism not typed; type: cell-based; conditions: for pEC50: HEK293; for fold-change relative to wild type integrase: WT SIV integrase
[4] = system: SIV integrase I110V (SIV IN RTV pseudovirus); test: organism not typed; type: cell-based; conditions: for pEC50: HEK293
[5] = system: SIV integrase G118R (SIV IN RTV pseudovirus); type: cell-based; conditions: G118R SIV integrase mutant
[6] = system: SIV integrase A122T (SIV IN RTV pseudovirus); test: organism not typed; type: cell-based; conditions: for pEC50: HEK293
[7] = system: SIV integrase E92G (SIV IN RTV pseudovirus)
[8] = system: SIV integrase I72T (SIV IN RTV pseudovirus); test: organism not typed; type: cell-based; conditions: for pEC50: HEK293
[9] = system: SIV integrase G140R (SIV IN RTV pseudovirus); test: organism not typed; type: cell-based; conditions: for pEC50: HEK293
[10] = system: SIV integrase E92Q (SIV IN RTV pseudovirus); type: cell-based; conditions: E92Q SIV integrase mutant
[11] = system: SIV integrase E92Q/G140R (SIV IN RTV pseudovirus); type: cell-based; conditions: E92Q/G140R SIV integrase mutant
[12] = system: SIV integrase Q124R (SIV IN RTV pseudovirus); test: organism not typed; type: cell-based; conditions: for pEC50: HEK293
HIV integrase G140S/A/C = conditions: cited from earlier work

O=C(NCc1c(F)cc(F)cc1F)c1cn2c(c(O)c1=O)C(=O)N1[C@H]3CC[C@H](C3)O[C@@H]1C2 [BIC, bictegravir]
fold-change relative to wild type integrase [1]: >1000 (>1000) fold
pEC50 [2]: 8.81
fold-change relative to wild type integrase [2]: 1.6 fold
pEC50 [3]: 9.00
fold-change relative to wild type integrase [3]: 1 fold
pEC50 [4]: 8.75
fold-change relative to wild type integrase [4]: 1.8 fold
fold-change relative to wild type integrase [5]: >1000 (>1000) fold
pEC50 [6]: 8.68
fold-change relative to wild type integrase [6]: 2.1 fold
pEC50 [7]: 8.37
fold-change relative to wild type integrase [7]: 4.3 fold
pEC50 [8]: 8.82
fold-change relative to wild type integrase [8]: 1.5 fold
pEC50 [9]: < 6.00
fold-change relative to wild type integrase [9]: >1000 (>1000) fold
fold-change relative to wild type integrase [10]: 2.0 fold
fold-change relative to wild type integrase [11]: >1000 (>1000) fold
pEC50 [12]: 8.83
fold-change relative to wild type integrase [12]: 1.5 fold

C[C@@H]1CCO[C@H]2Cn3cc(C(=O)NCc4ccc(F)cc4F)c(=O)c(O)c3C(=O)N12 [DTG, dolutegravir]
fold-change relative to wild type integrase [1]: >1000 (>1000) fold
pEC50 [2]: 9.04
fold-change relative to wild type integrase [2]: 0.9 fold
pEC50 [3]: 9.00
fold-change relative to wild type integrase [3]: 1 fold
pEC50 [4]: 8.82
fold-change relative to wild type integrase [4]: 1.5 fold
fold-change relative to wild type integrase [5]: >1000 (>1000) fold
pEC50 [6]: 8.85
fold-change relative to wild type integrase [6]: 1.4 fold
pEC50 [7]: 8.56
fold-change relative to wild type integrase [7]: 2.8 fold
pEC50 [8]: 8.94
fold-change relative to wild type integrase [8]: 1.1 fold
pEC50 [9]: < 6.00
fold-change relative to wild type integrase [9]: >1000 (>1000) fold
fold-change relative to wild type integrase [10]: 1.5 fold
fold reduced susceptibility of HIV with G140S/A/C (HIV integrase G140S/A/C): 10-100 fold
fold-change relative to wild type integrase [11]: >1000 (>1000) fold
pEC50 [12]: 8.79
fold-change relative to wild type integrase [12]: 1.6 fold

O=C1Nc2ccc(Cl)cc2[C@@](C#CC2CC2)(C(F)(F)F)O1 [EFV, efavirenz]
fold-change relative to wild type integrase [1]: 1.1 fold
pEC50 [2]: 9.17
fold-change relative to wild type integrase [2]: 1.0 fold
pEC50 [3]: 9.17
fold-change relative to wild type integrase [3]: 1 fold
pEC50 [4]: 9.10
fold-change relative to wild type integrase [4]: 1.2 fold
fold-change relative to wild type integrase [5]: 1.5 fold
pEC50 [6]: 9.11
fold-change relative to wild type integrase [6]: 1.2 fold
pEC50 [7]: 9.00
fold-change relative to wild type integrase [7]: 1.5 fold
pEC50 [8]: 9.22
fold-change relative to wild type integrase [8]: 0.9 fold
pEC50 [9]: 9.23
fold-change relative to wild type integrase [9]: 0.9 fold
fold-change relative to wild type integrase [10]: 0.8 fold
fold-change relative to wild type integrase [11]: 1.9 fold
pEC50 [12]: 9.15
fold-change relative to wild type integrase [12]: 1.0 fold

COc1cc2c(cc1Cc1cccc(Cl)c1F)c(=O)c(C(=O)O)cn2[C@H](CO)C(C)C [EVG, elvitegravir]
fold-change relative to wild type integrase [1]: > 807 fold
pEC50 [2]: 8.84
fold-change relative to wild type integrase [2]: 1.2 fold
pEC50 [3]: 8.91
fold-change relative to wild type integrase [3]: 1 fold
pEC50 [4]: 8.81
fold-change relative to wild type integrase [4]: 1.3 fold
fold-change relative to wild type integrase [5]: > 807 fold
pEC50 [6]: 8.94
fold-change relative to wild type integrase [6]: 0.9 fold
pEC50 [7]: 8.34
fold-change relative to wild type integrase [7]: 3.7 fold
pEC50 [8]: 8.93
fold-change relative to wild type integrase [8]: 0.9 fold
pEC50 [9]: < 6.00
fold-change relative to wild type integrase [9]: > 807 fold
fold-change relative to wild type integrase [10]: 7.8 fold
fold reduced susceptibility of HIV with G140S/A/C (HIV integrase G140S/A/C): 10-100 fold
fold-change relative to wild type integrase [11]: > 807 fold
pEC50 [12]: 8.80
fold-change relative to wild type integrase [12]: 1.3 fold

Cc1nnc(C(=O)NC(C)(C)c2nc(C(=O)NCc3ccc(F)cc3)c(O)c(=O)n2C)o1 [RAL, raltegravir]
fold-change relative to wild type integrase [1]: > 345 fold
pEC50 [2]: 8.40
fold-change relative to wild type integrase [2]: 1.4 fold
pEC50 [3]: 8.54
fold-change relative to wild type integrase [3]: 1 fold
pEC50 [4]: 8.42
fold-change relative to wild type integrase [4]: 1.3 fold
fold-change relative to wild type integrase [5]: > 345 fold
pEC50 [6]: 8.38
fold-change relative to wild type integrase [6]: 1.4 fold
pEC50 [7]: 8.09
fold-change relative to wild type integrase [7]: 2.8 fold
pEC50 [8]: 8.56
fold-change relative to wild type integrase [8]: 0.9 fold
pEC50 [9]: < 6.00
fold-change relative to wild type integrase [9]: > 345 fold
fold-change relative to wild type integrase [10]: 3.6 fold
fold reduced susceptibility of HIV with G140S/A/C (HIV integrase G140S/A/C): 10-100 fold
fold-change relative to wild type integrase [11]: > 345 fold
pEC50 [12]: 8.34
fold-change relative to wild type integrase [12]: 1.6 fold
